In ChEMBL document CHEMBL4507275, “Data for DCP probe BI-2545” (2021):

Legend:
Conditions in all cases: Compound concentration 1000.0 nM
[1] = molecular target: Focal adhesion kinase 1 (Homo sapiens) (UniProt Q05397)
[2] = molecular target: Cyclin-dependent kinase-like 2 (Homo sapiens) (UniProt Q92772)
[3] = test system: Hepatocyte growth factor receptor (Homo sapiens), P08581 [M1250T]
[4] = molecular target: Mitogen-activated protein kinase kinase kinase 5 (Homo sapiens) (UniProt Q99683)
[5] = molecular target: Serine/threonine-protein kinase 38-like (Homo sapiens) (UniProt Q9Y2H1)
[6] = molecular target: Calcium/calmodulin-dependent protein kinase type II subunit delta (Homo sapiens) (UniProt Q13557)
[7] = molecular target: Rhodopsin kinase GRK7 (Homo sapiens) (UniProt Q8WTQ7)
[8] = molecular target: RAC-beta serine/threonine-protein kinase (Homo sapiens) (UniProt P31751)
[9] = test system: Leucine-rich repeat serine/threonine-protein kinase 2 (Homo sapiens), Q5S007 [G2019S]
[10] = molecular target: Serine/threonine-protein kinase tousled-like 1 (Homo sapiens) (UniProt Q9UKI8)
[11] = molecular target: Epidermal growth factor receptor (Homo sapiens) (UniProt P00533)
[12] = test system: Tyrosine-protein kinase ABL1 (Homo sapiens), P00519 [F317I]
[13] = molecular target: Phosphatidylinositol 5-phosphate 4-kinase type-2 gamma (Homo sapiens) (UniProt Q8TBX8)
Sequence of Phosphatidylinositol 5-phosphate 4-kinase type-2 gamma (Homo sapiens) (Q8TBX8 whole entry): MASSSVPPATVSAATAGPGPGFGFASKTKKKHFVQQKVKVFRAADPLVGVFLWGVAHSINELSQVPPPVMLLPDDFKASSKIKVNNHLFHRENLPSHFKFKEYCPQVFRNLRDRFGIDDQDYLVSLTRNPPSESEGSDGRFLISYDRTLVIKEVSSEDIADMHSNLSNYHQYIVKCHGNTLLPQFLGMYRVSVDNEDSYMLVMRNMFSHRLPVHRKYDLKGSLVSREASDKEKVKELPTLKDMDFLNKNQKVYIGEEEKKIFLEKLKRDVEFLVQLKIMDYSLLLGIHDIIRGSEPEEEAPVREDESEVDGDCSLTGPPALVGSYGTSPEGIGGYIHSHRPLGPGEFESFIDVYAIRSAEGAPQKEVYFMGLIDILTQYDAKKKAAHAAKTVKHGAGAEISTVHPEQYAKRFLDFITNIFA

[14] = molecular target: Serine/threonine-protein kinase 16 (Homo sapiens) (UniProt O75716)
[15] = molecular target: Dual specificity mitogen-activated protein kinase kinase 5 (Homo sapiens) (UniProt Q13163)
[16] = molecular target: Phosphatidylinositol 4-phosphate 5-kinase type-1 gamma (Homo sapiens) (UniProt O60331)
[17] = molecular target: Beta-adrenergic receptor kinase 1 (Homo sapiens) (UniProt P25098)
[18] = molecular target: Serine/threonine-protein kinase 17A (Homo sapiens) (UniProt Q9UEE5)
[19] = molecular target: Serine/threonine-protein kinase Sgk1 (Homo sapiens) (UniProt O00141)
[20] = molecular target: Tyrosine-protein kinase BTK (Homo sapiens) (UniProt Q06187)
[21] = test system: Phosphatidylinositol 4,5-bisphosphate 3-kinase catalytic subunit alpha isoform (Homo sapiens), P42336 [E545A]
[22] = molecular target: Cyclin-dependent kinase 4 (Homo sapiens) (UniProt P11802)
Sequence of Cyclin-dependent kinase 4 (Homo sapiens) (P11802 whole entry): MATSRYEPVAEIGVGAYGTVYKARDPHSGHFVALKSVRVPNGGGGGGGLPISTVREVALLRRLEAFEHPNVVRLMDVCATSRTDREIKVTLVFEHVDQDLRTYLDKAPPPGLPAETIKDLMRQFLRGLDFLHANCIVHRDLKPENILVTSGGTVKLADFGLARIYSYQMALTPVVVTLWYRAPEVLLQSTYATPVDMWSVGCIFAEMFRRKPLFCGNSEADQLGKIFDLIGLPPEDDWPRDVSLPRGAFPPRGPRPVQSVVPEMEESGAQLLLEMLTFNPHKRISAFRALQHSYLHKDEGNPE

[23] = molecular target: Tyrosine-protein kinase Mer (Homo sapiens) (UniProt Q12866)
[24] = molecular target: TRAF2 and NCK-interacting protein kinase (Homo sapiens) (UniProt Q9UKE5)
[25] = molecular target: Cyclin-dependent kinase 4 (Homo sapiens) (UniProt P11802); remark: listed apart in the source
[26] = molecular target: Serine/threonine-protein kinase 10 (Homo sapiens) (UniProt O94804)
[27] = molecular target: Serine/threonine-protein kinase 33 (Homo sapiens) (UniProt Q9BYT3)
[28] = molecular target: Phosphatidylinositol 4,5-bisphosphate 3-kinase catalytic subunit alpha isoform (Homo sapiens) (UniProt P42336)
[29] = molecular target: Dual specificity mitogen-activated protein kinase kinase 2 (Homo sapiens) (UniProt P36507)
[30] = molecular target: Protein kinase C iota type (Homo sapiens) (UniProt P41743)
[31] = molecular target: Serine/threonine-protein kinase 35 (Homo sapiens) (UniProt Q8TDR2)
[32] = molecular target: Cyclin-dependent kinase 11A (Homo sapiens) (UniProt Q9UQ88)
[33] = molecular target: Fibroblast growth factor receptor 2 (Homo sapiens) (UniProt P21802)
[34] = molecular target: Muscle, skeletal receptor tyrosine-protein kinase (Homo sapiens) (UniProt O15146)
[35] = molecular target: Dual specificity protein kinase CLK3 (Homo sapiens) (UniProt P49761)
[36] = test system: ALK tyrosine kinase receptor (Homo sapiens), Q9UM73 [C1156Y]
[37] = molecular target: Serine/threonine-protein kinase PAK 2 (Homo sapiens) (UniProt Q13177)
[38] = molecular target: Mitogen-activated protein kinase kinase kinase 9 (Homo sapiens) (UniProt P80192)
[39] = molecular target: Aurora kinase B (Homo sapiens) (UniProt Q96GD4)
[40] = molecular target: Myotonin-protein kinase (Homo sapiens) (UniProt Q09013)
[41] = molecular target: Dual specificity protein kinase CLK1 (Homo sapiens) (UniProt P49759)
[42] = test system: Tyrosine-protein kinase ABL1 (Homo sapiens), P00519 [Y253F]
[43] = molecular target: Mitogen-activated protein kinase kinase kinase 4 (Homo sapiens) (UniProt Q9Y6R4)
Sequence of Mitogen-activated protein kinase kinase kinase 4 (Homo sapiens) (Q9Y6R4 whole entry): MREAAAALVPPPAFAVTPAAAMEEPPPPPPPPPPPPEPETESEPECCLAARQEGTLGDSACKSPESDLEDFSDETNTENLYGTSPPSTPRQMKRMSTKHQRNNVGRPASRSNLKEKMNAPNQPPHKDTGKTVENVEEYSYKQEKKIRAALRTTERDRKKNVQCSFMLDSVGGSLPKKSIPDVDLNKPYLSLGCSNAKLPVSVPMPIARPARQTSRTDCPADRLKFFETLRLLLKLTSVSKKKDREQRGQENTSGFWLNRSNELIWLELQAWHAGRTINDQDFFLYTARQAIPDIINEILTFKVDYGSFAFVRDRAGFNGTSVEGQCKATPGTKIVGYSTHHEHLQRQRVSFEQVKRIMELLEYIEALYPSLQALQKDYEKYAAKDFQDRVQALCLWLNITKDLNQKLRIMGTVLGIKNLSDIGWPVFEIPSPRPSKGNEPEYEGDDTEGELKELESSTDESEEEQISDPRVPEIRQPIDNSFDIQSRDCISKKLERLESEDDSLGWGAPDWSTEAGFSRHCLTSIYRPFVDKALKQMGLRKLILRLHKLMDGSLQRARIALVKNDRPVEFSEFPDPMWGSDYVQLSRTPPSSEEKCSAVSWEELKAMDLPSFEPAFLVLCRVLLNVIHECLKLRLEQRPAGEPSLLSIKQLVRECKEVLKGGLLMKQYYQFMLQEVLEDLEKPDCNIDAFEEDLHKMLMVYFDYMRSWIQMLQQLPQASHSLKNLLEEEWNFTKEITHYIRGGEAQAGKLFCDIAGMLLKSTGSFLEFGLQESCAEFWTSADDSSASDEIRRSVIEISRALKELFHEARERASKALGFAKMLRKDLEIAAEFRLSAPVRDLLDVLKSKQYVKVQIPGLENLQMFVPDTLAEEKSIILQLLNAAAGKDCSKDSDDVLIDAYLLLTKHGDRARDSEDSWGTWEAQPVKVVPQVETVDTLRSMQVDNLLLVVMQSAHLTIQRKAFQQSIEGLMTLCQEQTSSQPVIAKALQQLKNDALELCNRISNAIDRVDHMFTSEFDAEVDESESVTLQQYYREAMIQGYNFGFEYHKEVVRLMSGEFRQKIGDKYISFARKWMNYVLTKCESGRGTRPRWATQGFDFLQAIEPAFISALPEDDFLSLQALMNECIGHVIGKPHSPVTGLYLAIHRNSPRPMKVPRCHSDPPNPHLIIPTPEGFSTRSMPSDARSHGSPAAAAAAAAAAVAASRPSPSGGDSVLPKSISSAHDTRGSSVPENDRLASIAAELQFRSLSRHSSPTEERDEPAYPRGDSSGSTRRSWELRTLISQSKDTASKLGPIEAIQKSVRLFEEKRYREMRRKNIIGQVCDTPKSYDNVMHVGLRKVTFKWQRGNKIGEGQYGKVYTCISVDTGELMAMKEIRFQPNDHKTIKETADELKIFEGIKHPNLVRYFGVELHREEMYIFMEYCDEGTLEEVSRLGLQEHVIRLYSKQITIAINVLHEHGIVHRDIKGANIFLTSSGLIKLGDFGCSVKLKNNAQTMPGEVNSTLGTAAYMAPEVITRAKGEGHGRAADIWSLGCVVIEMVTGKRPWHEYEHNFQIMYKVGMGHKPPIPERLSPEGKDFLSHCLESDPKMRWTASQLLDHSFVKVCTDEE

[44] = test system: Receptor-type tyrosine-protein kinase FLT3 (Homo sapiens), P36888 [D835V]
[45] = molecular target: Serine/threonine-protein kinase haspin (Homo sapiens) (UniProt Q8TF76)
Sequence of Serine/threonine-protein kinase haspin (Homo sapiens) (Q8TF76 whole entry): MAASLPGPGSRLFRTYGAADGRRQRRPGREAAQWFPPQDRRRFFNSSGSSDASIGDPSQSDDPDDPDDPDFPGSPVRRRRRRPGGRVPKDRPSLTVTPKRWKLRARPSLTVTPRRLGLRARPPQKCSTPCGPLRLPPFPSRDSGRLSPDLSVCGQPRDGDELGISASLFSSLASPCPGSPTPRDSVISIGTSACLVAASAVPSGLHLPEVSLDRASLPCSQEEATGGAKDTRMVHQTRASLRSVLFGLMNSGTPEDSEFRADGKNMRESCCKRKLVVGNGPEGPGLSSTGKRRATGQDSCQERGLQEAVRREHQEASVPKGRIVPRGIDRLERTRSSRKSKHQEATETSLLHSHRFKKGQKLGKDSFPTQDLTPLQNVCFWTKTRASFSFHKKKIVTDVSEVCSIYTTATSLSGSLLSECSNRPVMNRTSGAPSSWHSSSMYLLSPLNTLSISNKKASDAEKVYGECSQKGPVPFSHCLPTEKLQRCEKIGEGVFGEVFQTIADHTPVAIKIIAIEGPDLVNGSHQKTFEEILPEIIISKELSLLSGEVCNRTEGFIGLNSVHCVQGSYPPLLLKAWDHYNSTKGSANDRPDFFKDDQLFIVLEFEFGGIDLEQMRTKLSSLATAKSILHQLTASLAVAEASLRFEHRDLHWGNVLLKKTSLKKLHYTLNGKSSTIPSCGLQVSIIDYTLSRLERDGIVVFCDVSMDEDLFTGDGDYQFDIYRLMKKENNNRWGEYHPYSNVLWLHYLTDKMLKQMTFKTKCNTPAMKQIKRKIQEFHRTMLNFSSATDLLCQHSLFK

Sequence of Mitogen-activated protein kinase kinase kinase 5 (Homo sapiens) (Q99683 whole entry): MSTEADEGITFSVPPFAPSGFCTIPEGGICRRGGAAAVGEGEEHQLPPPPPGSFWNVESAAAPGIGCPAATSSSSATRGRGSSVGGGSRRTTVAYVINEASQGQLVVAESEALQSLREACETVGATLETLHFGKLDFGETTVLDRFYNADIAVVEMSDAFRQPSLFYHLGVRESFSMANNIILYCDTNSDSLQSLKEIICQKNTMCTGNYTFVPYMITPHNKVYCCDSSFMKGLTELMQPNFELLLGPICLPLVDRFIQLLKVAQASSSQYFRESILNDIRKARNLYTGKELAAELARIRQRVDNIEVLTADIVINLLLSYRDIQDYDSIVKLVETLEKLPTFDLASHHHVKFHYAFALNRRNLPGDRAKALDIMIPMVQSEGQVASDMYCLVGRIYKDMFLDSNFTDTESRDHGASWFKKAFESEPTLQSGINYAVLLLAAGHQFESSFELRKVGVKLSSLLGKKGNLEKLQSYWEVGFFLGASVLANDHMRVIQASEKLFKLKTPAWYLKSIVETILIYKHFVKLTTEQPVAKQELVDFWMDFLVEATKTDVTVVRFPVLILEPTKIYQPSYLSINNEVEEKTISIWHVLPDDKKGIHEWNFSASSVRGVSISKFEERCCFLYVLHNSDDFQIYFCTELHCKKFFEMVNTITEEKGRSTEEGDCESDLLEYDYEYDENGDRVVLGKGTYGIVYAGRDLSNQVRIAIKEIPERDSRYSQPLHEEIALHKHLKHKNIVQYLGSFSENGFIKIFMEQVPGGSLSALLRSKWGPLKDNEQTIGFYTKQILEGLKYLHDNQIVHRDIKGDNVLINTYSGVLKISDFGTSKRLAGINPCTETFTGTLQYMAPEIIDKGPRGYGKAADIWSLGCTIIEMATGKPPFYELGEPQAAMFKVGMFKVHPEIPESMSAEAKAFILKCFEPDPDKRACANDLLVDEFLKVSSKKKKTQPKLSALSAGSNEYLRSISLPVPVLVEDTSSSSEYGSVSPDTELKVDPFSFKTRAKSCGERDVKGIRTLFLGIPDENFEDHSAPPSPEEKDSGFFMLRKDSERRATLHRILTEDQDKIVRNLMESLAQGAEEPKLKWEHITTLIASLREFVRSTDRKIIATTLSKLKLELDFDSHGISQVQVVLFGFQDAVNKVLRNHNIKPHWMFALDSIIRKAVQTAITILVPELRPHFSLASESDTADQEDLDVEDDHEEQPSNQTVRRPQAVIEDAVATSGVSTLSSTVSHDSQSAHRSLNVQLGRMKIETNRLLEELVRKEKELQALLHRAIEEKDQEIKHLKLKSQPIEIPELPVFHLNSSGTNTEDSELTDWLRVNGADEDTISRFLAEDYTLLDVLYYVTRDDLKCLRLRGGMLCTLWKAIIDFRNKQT
Sequence of Cyclin-dependent kinase-like 2 (Homo sapiens) (Q92772 whole entry): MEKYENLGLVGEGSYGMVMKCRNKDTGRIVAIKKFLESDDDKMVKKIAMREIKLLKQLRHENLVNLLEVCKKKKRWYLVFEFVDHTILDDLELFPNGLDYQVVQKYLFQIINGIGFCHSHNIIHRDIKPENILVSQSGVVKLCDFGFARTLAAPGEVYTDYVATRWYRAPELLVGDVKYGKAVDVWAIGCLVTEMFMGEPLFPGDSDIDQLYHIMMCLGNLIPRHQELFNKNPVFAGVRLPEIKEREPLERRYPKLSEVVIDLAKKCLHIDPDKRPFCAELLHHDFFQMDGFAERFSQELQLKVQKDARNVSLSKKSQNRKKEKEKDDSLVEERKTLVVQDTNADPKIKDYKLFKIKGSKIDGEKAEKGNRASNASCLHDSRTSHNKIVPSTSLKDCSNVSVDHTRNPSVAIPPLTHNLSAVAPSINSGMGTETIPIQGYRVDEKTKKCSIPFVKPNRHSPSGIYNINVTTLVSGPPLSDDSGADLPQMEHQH

O=C(NC[C@@H]1[C@H]2CN(C(=O)OCc3cc(C(F)(F)F)cc(C(F)(F)F)c3)C[C@@H]12)c1ccc2[nH]nnc2c1 [BI 2545]
residual activity [1]: 100%
residual activity [2]: 95%
residual activity [3]: 100%
residual activity [4]: 13%
residual activity [5]: 45%
residual activity [6]: 100%
residual activity [7]: 100%
residual activity [8]: 100%
residual activity [9]: 91%
residual activity [10]: 68%
residual activity [11]: 99%
residual activity [12]: 88%
residual activity [13]: 100%
residual activity [14]: 100%
residual activity [15]: 100%
residual activity [16]: 98%
residual activity [17]: 71%
residual activity [18]: 95%
residual activity [19]: 100%
residual activity [20]: 100%
residual activity [21]: 96%
residual activity [22]: 100%
residual activity [23]: 100%
residual activity [24]: 98%
residual activity [25]: 97%
residual activity [26]: 100%
residual activity [27]: 84%
residual activity [28]: 74%
residual activity [29]: 84%
residual activity [30]: 98%
residual activity [31]: 100%
residual activity [32]: 100%
residual activity [33]: 100%
residual activity [34]: 77%
residual activity [35]: 78%
residual activity [36]: 94%
residual activity [37]: 100%
residual activity [38]: 100%
residual activity [39]: 84%
residual activity [40]: 94%
residual activity [41]: 87%
residual activity [42]: 95%
residual activity [43]: 91%
residual activity [44]: 100%
residual activity [45]: 84%

Cc1nccc(COC(=O)N2C[C@@H]3[C@@H](CNC(=O)c4ccc5[nH]nnc5c4)[C@@H]3C2)n1 [BI 3017]
residual activity [1]: 100%
residual activity [2]: 95%
residual activity [3]: 100%
residual activity [4]: 95%
residual activity [5]: 70%
residual activity [6]: 100%
residual activity [7]: 88%
residual activity [8]: 98%
residual activity [9]: 82%
residual activity [10]: 87%
residual activity [11]: 82%
residual activity [12]: 81%
residual activity [13]: 100%
residual activity [14]: 80%
residual activity [15]: 100%
residual activity [16]: 93%
residual activity [17]: 100%
residual activity [18]: 79%
residual activity [19]: 100%
residual activity [20]: 99%
residual activity [21]: 87%
residual activity [22]: 90%
residual activity [23]: 100%
residual activity [24]: 100%
residual activity [25]: 78%
residual activity [26]: 100%
residual activity [27]: 93%
residual activity [28]: 92%
residual activity [29]: 84%
residual activity [30]: 100%
residual activity [31]: 83%
residual activity [32]: 100%
residual activity [33]: 78%
residual activity [34]: 100%
residual activity [35]: 90%
residual activity [36]: 76%
residual activity [37]: 100%
residual activity [38]: 89%
residual activity [39]: 93%
residual activity [40]: 98%
residual activity [41]: 100%
residual activity [42]: 93%
residual activity [43]: 94%
residual activity [44]: 79%
residual activity [45]: 91%
